Measured values from publication PMC8264259, “A Novel Ruthenium(II) Complex With Lapachol Induces G2/M Phase Arrest Through Aurora-B Kinase Down-Regulation and ROS-Mediated Apoptosis in Human Prostate Adenocarcinoma Cells” (Frontiers in Oncology, 2021).

How the values were obtained:
[1] = system: PNT-2 cells; assay: Comet assay, PNT-2; format: cell-based, human
Experimental: The comet assay was performed to evaluate DNA damage following the method described by ([37]). Briefly, DU-145 and PNT-2 cells were seeded (1.0 × 10^5 cells/well) in 24-well plates and maintained to attach at 37°C in 5% CO2 for 24 h. After, cells were treated with different concentrations of complex (2) for 24 h. DMSO (0.1% v/v) was used as the vehicle control and methyl methanesulfonate (150 μM, Sigma-Aldrich) as DNA damage inducer. Following 24 h of incubation, the cells were collected, and cell viability assay was performed using trypan blue dye. […] Then, cells were mixed with UltraPure™ Low-Melting-Point Agarose (0.5%, Invitrogen®), and added on pre-coated slides with UltraPure™ Agarose (1.5%, Invitrogen®). After agarose solidification, the slides were immersed in a lysis solution (2.5 M NaCl, 100 mM EDTA, 10 mM Tris, 10% DMSO, 1% Triton X-100, pH 10.4) for 18 h at 4°C. […] The nucleoids were identified in a fluorescence microscope (AxioStar Plus, Carl Zeiss Axio Cam MRc-AxioVision 3.1) using a 516 to 560 nm filter, 590 nm filter barrier, in 20× objective with an integrated digital camera. For each treatment, 100 random nucleoids were analyzed, and the tail fluorescence was measured through the Comet Assay IV™ imaging system (Perceptive Instruments^©, Bury St Edmunds, England).

[2] = system: Aurora-B; assay: Western blot, Aurora-B expression; format: cell-based, human; details: DU-145, increasing concentrations (0.25-1.5 μM), 24 h
Experimental: Briefly, DU-145 cells were seeded (1.0 × 10^6 cells/well) into six-well plates and maintained to attach at 37°C in 5% CO2. After 24 h, cells were treated with 0.25, 0.50, 1.0, and 1.5 μM of complex (2). DMSO (0.1% v/v) was used as the vehicle control. After 24 h of incubation, cells were collected and suspended in Western blotting lysis buffer (20 mM Tris-HCl pH 7.4, 150 mM NaCl, 1 mM EDTA, and phosphatase and protease inhibitors). Cell lysates were centrifuged at 11,000g for 15 min at 4 °C, and supernatant was collected. Protein concentrations were quantified using the BCA Protein Assay Kit® (Thermo Fischer Scientific), according to the manufacturer’s instructions. For immunoblotting, equal amounts (30 μg) of total protein were electrophoresed in a NuPAGE® 4-12% Bis-Tris gel and transferred to an Invitrolon™ polyvinylidene difluoride (PVDF) membrane (Novex®, Thermo Fischer Scientific) at 100 V for 1 h. PVDF-membrane was washed two times (5 min each) with Tris-buffered saline plus Tween 20 (TBST, Sigma-Aldrich) and blocked in 5% non-fat milk in phosphate buffered saline with Tween®20 (PBST, Sigma-Aldrich) for 1 h at room temperature. […]

[3] = system: pBR322 plasmid DNA; assay: DNA interactions assay with pBR322 plasmid (agarose gel electrophoresis); format: biochemical; details: 1.0 μM, 37°C, 18 h
Experimental: Plasmid pBR322 (38 µM, Sigma-Aldrich) was mixed with different concentrations (0.125–1.0 µM) of both complexes and incubated at 37°C for 18 h. Then, the loading buffer was added and the samples were analyzed by agarose gel electrophoresis for 90 min in 1% agarose gel using a Tris-acetate-EDTA (TAE) buffer (0.45 M Tris-HCl, 0.45 M acetic acid, 10 mM EDTA, pH 7.4), and ethidium bromide was employed for staining. Bands were visualized with a ChemiDoc MP imager (BioRad, USA).

CC(C)=CCC1=C([O-])C(=O)c2ccccc2C1=O.F[P-](F)(F)(F)(F)F.[Ru+2].c1ccc(P(CP(c2ccccc2)c2ccccc2)c2ccccc2)cc1.c1cnc2c(c1)ccc1cccnc12 [complex (2), [Ru(Lap)(dppm)(phen)]PF6]
DNA damage (comet tail intensity) ([1]; PNT-2, maximum tested concentration 6.0 μM (~IC50), 24 h): increase in DNA damage
DNA damage (comet tail intensity) ([1]; PNT-2 prostate normal cells, same concentrations as DU-145, 24 h): no DNA damage
Aurora-B protein levels [2]: downregulated
nuclease activity on pBR322 (supercoiled to linear) [3]: single-strand DNA cleavage
